Source: US7550624B2, “Pharmaceutically active salts and esters of 1-dimethylamino-3-(3-methoxyphenyl)-2-methylpentan-3-ol and 3- (3-dimethylamino-1-ethyl-1-hydroxy-2-methylpropyl)-phenol and methods of using same” (Gruenenthal GmbH, priority 2002, dated 2009)
Marks after values point to notes of the source that are not given here.

System: female Sprague-Dawley rats
Assay: Cystometry tests on conscious fresh rats
Format: in vivo, rat
Settings: for effect on the bladder regulation (in words): iv, cystometric parameters
Method: Cystometry investigations were carried out on fresh female Sprague-Dawley rats according to the method of Ishizuka et. al. ((1997), Naunyn-Schmiedeberg's Arch. Pharmacol. 355: 787-793). Three days after implantation of bladder and venous catheters the animals were investigated in the conscious state while freely moving. The bladder catheter was connected to a pressure gauge and an injection pump. The animals were placed in metabolic cages that enable the volume of urine to be measured. Physiological saline solution was infused (10 ml/hour) into the emptied bladder and the bladder pressure and volume of urine were continuously recorded. After a stabilisation phase a 20-minute phase was recorded that was characterised by normal, reproducible micturition cycles. The following parameters among others were measured: • threshold pressure TP, bladder pressure immediately before micturition, • bladder capacity BC, residual volume after prior micturition plus volume of infused solution during the filling phase, • intercontraction interval ICI, i.e. the time interval between consecutive micturition.
An increase in the threshold pressure (TP) indicates an important therapeutic effect in one of the medical conditions covered by the invention. Also, the intercontraction interval (ICI) is an important parameter for measuring the physiological effectiveness of a substance in the treatment of urinary incontinence, as is the bladder capacity (BC). In this connection, on account of the widely differing causes of the symptoms of these disease patterns it is not necessary to influence positively all three parameters in order for a medicament to be effective.
After recording three reproducible micturition cycles to provide a baseline value, the test substances 1 (1.0 mg/kg), 2 (0.1; 0.3 and 0.5 mg/kg), 21 (0.5 mg/kg) and 7 (0.3 mg/kg) in a vehicle comprising 0.9% NaCl were applied intravenously and the effect on the cystometric parameters was recorded at 90 to 120 minutes. In the effect maximum the mean value of 3 micturition cycles was determined and recorded as a percentage change compared to the baseline value (Table 1).

[1] = 0.3 mg/kg iv, effect maximum, mean of 3 micturition cycles
[2] = 0.5 mg/kg iv, effect maximum, mean of 3 micturition cycles

| SMILES | BC Bladder Capacity (change compared to the baseline value) (1.0 mg/kg iv, effect maximum, mean of 3 micturition cycles) | BC Bladder Capacity (change compared to the baseline value) [1] | ICI Inter-Contraction Interval (change compared to the baseline value) [1] | BC Bladder Capacity (change compared to the baseline value) (0.1 mg/kg iv, effect maximum, mean of 3 micturition cycles) | BC Bladder Capacity (change compared to the baseline value) [2] | effect on the bladder regulation (in words) | TP Threshold Pressure (change compared to the baseline value) [2] [%**] |
| --- | --- | --- | --- | --- | --- | --- | --- |
| CC[C@](O)(c1cccc(OC)c1)[C@H](C)CN(C)C.Cl (racemic) [Compound 1, (2RS,3RS)-1-dimethylamino-3-(3-methoxyphenyl)-2-methylpentan-3-ol, hydrochloride] | +31%** |  |  |  |  |  |  |
| CCC(O)(c1cccc(O)c1)C(C)CN(C)C.Cl (racemic) [Compound 7, (2RS,3RS)-3-(3-dimethylamino-1-ethyl-1-hydroxy-2-methylpropyl)-phenol, hydrochloride] |  | +32%** | +2%* |  |  |  |  |
| CC[C@](O)(c1cccc(OC)c1)[C@H](C)CN(C)C.Cl [Compound 2, (+)-(2R,3R)-1-dimethylamino-3-(3-methoxyphenyl)-2-methylpentan-3-ol, hydrochloride] |  | +33%** |  | +7.8%** | +20.6%** | very effective |  |
| CC[C@@](O)(c1cccc(OC)c1)[C@@H](C)CN(C)C.Cl [Compound 21, (−)-(2S,3S)-1-dimethylamino-3-(3-methoxyphenyl)-2-methylpentan-3-ol, hydrochloride] |  |  |  |  | +3%** | does not exhibit such a marked effect | −1.1 |
